Data from ChEMBL document CHEMBL3885861, “Open TG-GATES”.

Organism: Rattus norvegicus
Test: Open TG-GATES - Regimen: Single
Assay type: toxicity, organism-based, Sprague-Dawley
Design: regimen Single, gender Male, age 6 weeks
Conditions: in vivo, po, route gavage; for A/G / ALP / ALT / AST / BUN / CRE / Ca / Cl / DBIL / GLC / IP / K / LDH / Na / PL / RALB / TBIL / TC / TG / TP / gamma-GTP: tissue Plasma; for APTT / Bas / Eos / Fbg / Hb / Ht / Lym / MCH / MCHC / MCV / Mono / Neu / PT / Plat / RBC / Ret / WBC: tissue Blood; for KIDNEY_L / KIDNEY_R / KIDNEY_TOTAL: tissue Kidney; for LIVER: tissue Liver
[1] = 30 mg/kg, 9 h, dose level Middle
[2] = 30 mg/kg, 24 h, dose level Middle
[3] = 100 mg/kg, 3 h, dose level High

O=C1CN(/N=C/c2ccc([N+](=O)[O-])o2)C(=O)N1 [NITROFURANTOIN]
A/G [1]: 1.6
ALP [1]: 825.2 IU/L
ALT [1]: 33.2 IU/L
AST [1]: 62 IU/L
BUN [1]: 10.4 mg/dL
CRE [1]: 0.3 mg/dL
Ca [1]: 10.4 mg/dL
Cl [1]: 101.8 meq/L
DBIL [1]: 0.072 mg/dL
GLC [1]: 199 mg/dL
IP [1]: 9.7 mg/dL
K [1]: 3.8 meq/L
LDH [1]: 197.6 IU/L
Na [1]: 139.6 meq/L
PL [1]: 130.2 mg/dL
RALB [1]: 3.3 g/dL
TBIL [1]: 0.1 mg/dL
TC [1]: 67.4 mg/dL
TG [1]: 57.4 mg/dL
TP [1]: 5.4 g/dL
gamma-GTP [1]: 0.4 IU/L
TERMINAL_BW [2]: 231.7 g
APTT [2]: 18.6 s
Bas [2]: 0%
Eos [2]: 1%
Fbg [2]: 219.2 mg/dL
Hb [2]: 13.3 g/dL
Ht [2]: 37.8%
Lym [2]: 77.8%
MCH [2]: 21.9 pg
MCHC [2]: 35.1%
MCV [2]: 62.4 fL
Mono [2]: 2.4%
Neu [2]: 17.4%
PT [2]: 12.7 s
Plat [2]: 115.4 x10_4/uL
RBC [2]: 604.6 x10_4/ul
Ret [2]: 7.1%
WBC [2]: 92 x10_2/uL
KIDNEY_L [2]: 1.1 g
KIDNEY_R [2]: 1.1 g
KIDNEY_TOTAL [2]: 2.1 g
LIVER [2]: 11.1 g
A/G [2]: 1.6
ALP [2]: 1093.6 IU/L
ALT [2]: 39 IU/L
AST [2]: 67.8 IU/L
BUN [2]: 13.6 mg/dL
CRE [2]: 0.4 mg/dL
Ca [2]: 10.7 mg/dL
Cl [2]: 102.2 meq/L
DBIL [2]: 0.1 mg/dL
GLC [2]: 211.8 mg/dL
IP [2]: 7.6 mg/dL
K [2]: 4.1 meq/L
LDH [2]: 176 IU/L
Na [2]: 139.8 meq/L
PL [2]: 140.8 mg/dL
RALB [2]: 3.3 g/dL
TBIL [2]: 0.2 mg/dL
TC [2]: 69.4 mg/dL
TG [2]: 115 mg/dL
TP [2]: 5.4 g/dL
gamma-GTP [2]: 1 IU/L
TERMINAL_BW [3]: 220.5 g
TERMINAL_BW (100 mg/kg, 3 h, dose level Low): 205.8 g
APTT [3]: 19.6 s
Bas [3]: 0%
Eos [3]: 1%
Fbg [3]: 215.6 mg/dL
Hb [3]: 13.1 g/dL
Ht [3]: 37.2%
Lym [3]: 78.6%
MCH [3]: 21.8 pg
MCHC [3]: 35.1%
MCV [3]: 62.1 fL
Mono [3]: 2.6%
Neu [3]: 16.4%
PT [3]: 12.8 s
Plat [3]: 113 x10_4/uL
RBC [3]: 599.8 x10_4/ul
Ret [3]: 8%
WBC [3]: 80.6 x10_2/uL
APTT (100 mg/kg, 3 h, dose level Low): 16.1 s
Eos (100 mg/kg, 3 h, dose level Low): 1.2%
Fbg (100 mg/kg, 3 h, dose level Low): 227.8 mg/dL
Hb (100 mg/kg, 3 h, dose level Low): 13.4 g/dL
Ht (100 mg/kg, 3 h, dose level Low): 40.5%
Lym (100 mg/kg, 3 h, dose level Low): 75.6%
MCH (100 mg/kg, 3 h, dose level Low): 21.4 pg
MCHC (100 mg/kg, 3 h, dose level Low): 33%
MCV (100 mg/kg, 3 h, dose level Low): 64.7 fL
Mono (100 mg/kg, 3 h, dose level Low): 6.8%
PT (100 mg/kg, 3 h, dose level Low): 11.9 s
Plat (100 mg/kg, 3 h, dose level Low): 124.7 x10_4/uL
RBC (100 mg/kg, 3 h, dose level Low): 625.4 x10_4/ul
Ret (100 mg/kg, 3 h, dose level Low): 7.7%
WBC (100 mg/kg, 3 h, dose level Low): 78.5 x10_2/uL
KIDNEY_L [3]: 1 g
KIDNEY_R [3]: 1 g
KIDNEY_TOTAL [3]: 2 g
KIDNEY_L (100 mg/kg, 3 h, dose level Low): 0.9 g
KIDNEY_TOTAL (100 mg/kg, 3 h, dose level Low): 1.9 g
LIVER [3]: 10 g
LIVER (100 mg/kg, 3 h, dose level Low): 8.6 g
A/G [3]: 1.6
ALP [3]: 909.6 IU/L
ALT [3]: 38 IU/L
AST [3]: 69.8 IU/L
BUN [3]: 12 mg/dL
CRE [3]: 0.4 mg/dL
Ca [3]: 10.7 mg/dL
Cl [3]: 101.6 meq/L
DBIL [3]: 0.068 mg/dL
GLC [3]: 183.2 mg/dL
IP [3]: 9.2 mg/dL
K [3]: 4 meq/L
LDH [3]: 229.4 IU/L
Na [3]: 140.4 meq/L
PL [3]: 137.6 mg/dL
RALB [3]: 3.4 g/dL
TBIL [3]: 0.1 mg/dL
TC [3]: 77.2 mg/dL
TG [3]: 66.2 mg/dL
TP [3]: 5.5 g/dL
gamma-GTP [3]: 0.8 IU/L
A/G (100 mg/kg, 3 h, dose level Low): 2.4
ALP (100 mg/kg, 3 h, dose level Low): 1349.8 IU/L
ALT (100 mg/kg, 3 h, dose level Low): 39.2 IU/L
AST (100 mg/kg, 3 h, dose level Low): 64.6 IU/L
BUN (100 mg/kg, 3 h, dose level Low): 11.2 mg/dL
CRE (100 mg/kg, 3 h, dose level Low): 0.3 mg/dL
Ca (100 mg/kg, 3 h, dose level Low): 11.1 mg/dL
Cl (100 mg/kg, 3 h, dose level Low): 104.2 meq/L
DBIL (100 mg/kg, 3 h, dose level Low): 0.006 mg/dL
GLC (100 mg/kg, 3 h, dose level Low): 187.6 mg/dL
IP (100 mg/kg, 3 h, dose level Low): 9.6 mg/dL
K (100 mg/kg, 3 h, dose level Low): 4.3 meq/L
LDH (100 mg/kg, 3 h, dose level Low): 91.8 IU/L
Na (100 mg/kg, 3 h, dose level Low): 138.8 meq/L
PL (100 mg/kg, 3 h, dose level Low): 144 mg/dL
RALB (100 mg/kg, 3 h, dose level Low): 4 g/dL
TBIL (100 mg/kg, 3 h, dose level Low): 0.032 mg/dL
TC (100 mg/kg, 3 h, dose level Low): 91.2 mg/dL
TG (100 mg/kg, 3 h, dose level Low): 63.2 mg/dL
TP (100 mg/kg, 3 h, dose level Low): 5.7 g/dL
gamma-GTP (100 mg/kg, 3 h, dose level Low): 1 IU/L
TERMINAL_BW (100 mg/kg, 6 h, dose level High): 216.2 g
